In patent publication US7026359B1, “Utilization of a highly fluorinated oligomeric alkane in ophthalmology” (Bausch & Lomb Incorporated, priority 1999, dated 2006):

Assays:
Type in all cases: physicochemical
[1] = Refractive index
[2] = Surface tension
[3] = Critical solubility temperature in hexane (CST), qualitative measure of lipophilicity / tissue penetration
Source text: The tissue penetration capacity can be described qualitatively by the critical solubility temperature in hexane (abbreviation: CST). This qualitative measure of lipophilicity is at the same time a measure of the capacity for tissue penetration.

[4] = Viscosity
[5] = Density
[6] = Sterilization in an autoclave (stability); details: 121° C. in an autoclave
Method: The highly fluorinated oligomer (C6F13CHCH2)3 is dissolved in fluorocarbons and purified via an Al2O3 chromatographic column. After removal of the solvent the last traces of volatile contaminants are removed in a vacuum. The highly fluorinated trimer according to nuclear spin resonance, infrared and mass spectroscopic tests, a uniform and highly pure substance with a molecular weight of 1055. Charging with an active agent takes place under mild conditions via a solvent that is not miscible with the trimer after distribution to saturation concentration. β-Carotene as active agent changes the color of the oligomer slightly. […] The nuclear magnetic data of this substance are as follows: […]

For (C6F13CHCH2)3 [Example 1], the “Refractive index n^D20” value [1] was 1.3351, the Surface tension [2] was 19.5 mN/m and the “Critical solubility temperature in n-hexane, CST” value [3] was 35 °C. For the same substance, the Viscosity [4] was 220 mPa·sec, the Density [5] was 1.661 g/mL and the Stability on sterilization [6] was “without the physical or chemical properties of the substances being changed”.
